In patent US20100074968A1, “AGENT AND METHOD FOR TREATING CANCER COMPRISING STRONTIUM, AMINO ACID(S) AND MINERAL AGENT(S)” (HELSINGFORS INSTITUTION FÖR BIOMMUNTERAPI AB., priority 2003, published 2010):

Experiments:
[1] = long-lasting use for diagnostic purposes, i.v. dose up to 80 mg SrCl2; cited from earlier work
[2] = system: prostate cancer (CaP); assay: Strontium alone or with full dietary support program in prostate cancer patients: hormone/PSA levels and clinical course; assay type: in vivo, human
Protocol: In addition to the dietary biomodulating components prescribed (see Table 1), the patient ingested a daily amount of 7 mg of strontium oxide, contained in birch ash that they prepared at home and was taking continuously at a dose of about 8 g per day.
• 1. Oral administration of each (2-5 g/day) of respective L-amino acids: Arg, Asp, Glu, Gly, Lys and Ser in connection with meals. The amino acids are manufactured by Degussa Ag, Germany. • 2. […] Small physiologic amounts of vitamins: A, B, C, D, E, K, folic acid and lycopene. • 4. To improve lymphopoiesis and the immune defense of patients a diet containing prionfree neurogenic lipids (equivalent to approx. 50 g of brain) was recommended, (purchased and canned by Neurofood Ltd. Finland). • 5. All these dietary ingredients can be mixed together in yoghurt, forming a daily ration, using pre-packed pulvers. • 6. Dose-levels are adjusted based on clinical response as measured, and correlated to the patient's body weight.
(§1) The effect of strontium intake on selected physiological reactions was evaluated by administering strontium alone or together with the full dietary support program described in table 1 to four prostate cancer patients, P1-P4, and to one healthy individual.

[3] = Effect of strontium intake on serum hormone levels in healthy individual(s); assay type: in vivo, human
Protocol: When healthy individuals were given 7 mg strontium chloride per day, the PRL level increased within two weeks 50-80% from a normal base value. […]
as §1, with “individual. The results are shown in table 4, which also gives the normal values for the measured hormones.” for “individual.”

[4] = patients diagnosed with prostate cancer, administration of strontium
[5] = P0 without Sr for three weeks (after the Sr course)
[6] = healthy individual P0, after Sr 7 mg, 14 days
[7] = healthy individuals, 7 mg strontium chloride per day, two weeks
[8] = healthy persons, ingestion of strontium (in mg's)
[9] = laboratory pattern, orchiectomized patient P1 (No. 1), 7 mg strontium oxide daily plus dietary biomodulating components
[10] = patient P1, year 2003, 7 mg strontium oxide daily (birch ash) plus dietary biomodulating components

For `[Cl-].[Cl-].[Sr+2]` [strontium chloride], the harmful side effects [1] is listed as “No harmful therapeutic side effects”, the DHEAS level [2, 4] is listed as “decrease” and the FSH level [2, 4] is listed as “increases”. The PSA level [2, 4] was “decrease”, the DHEAS ([2]; prostate cancer patient P2) was <0.8 µmol/L and the PRL ([2]; prostate cancer patient P2) was 852 mU/L. The PSA ([2]; prostate cancer patient P2) was 12.6 µg/L, the DHEAS ([2]; prostate cancer patient P3 ±) was 2.5 µmol/L and the FSH ([2]; prostate cancer patient P3 ±) was 12 IU/L. For the same compound, the PRL ([2]; prostate cancer patient P3 ±) was 568 mU/L, the PSA ([2]; prostate cancer patient P3 ±) was 12.7 µg/L and the “serum DHEA” value ([2]; prostate cancer patient P3 ±) was 4.3 nmol/L. For the same compound, the DHEAS ([2]; prostate cancer patient P4 ±) was <0.8 µmol/L, the FSH ([2]; prostate cancer patient P4 ±) was 13 IU/L and the PRL ([2]; prostate cancer patient P4 ±) was 1879 mU/L. The PSA ([2]; prostate cancer patient P4 ±) was 24.0 µg/L, the “serum DHEA” value ([2]; prostate cancer patient P4 ±) was 2.4 nmol/L and the DHEAS [3, 5] was 2.7 µmol/L. For the same compound, the FSH [3, 5] was 11 IU/L, the PRL [3, 5] was 337 mU/L and the PSA [3, 5] was 0.4 µg/L. The “serum DHEA” value [3, 5] was 3.6 nmol/L, the DHEAS [3, 6] was 2.3 µmol/L and the FSH [3, 6] was 13 IU/L. The PRL [3, 6] was 389 mU/L, the PSA [3, 6] was 0.4 µg/L and the “serum DHEA” value [3, 6] was 9.8 nmol/L. The FSH level ([3]; healthy individuals, 7 mg strontium chloride per day) was “can increase or remain on a level exceeding normal levels”, the “serum DHEA level” value [3, 7] was “can show an increase in value” and the “serum DHEAS level” value [3, 7] was “decreased”. The “serum prolactin (PRL) level increase” value ([3]; healthy individuals, 7 mg strontium chloride per day, within two weeks, from normal base value) was 50-80%, the PRL increase [3, 8] was > 50% and the “decrease in DHEAS” value [3, 8] was ~40%.
With `[O-2].[Sr+2]` [strontium oxide] the Activin [2, 9] was 330 to 500 pg/mL, the DHEA [2, 9] was <2.0 nmol/L and the DHEAS [2, 9] was <0.8 µmol/L. For the same compound, the Inhibin [2, 9] was <7.8 pg/mL, the PRL [2, 9] was 15-95 mU/L and the PSA [2, 9] was <0.1 µg/L. The SHBG [2, 9] was 58 to 61 nmol/L, the Testost [2, 9] was 1.0 nmol/L and the “time until bone-metastases disappeared” value ([2]; patient P1, multiple bone-metastases) was “four”. For the same compound, the “time until bone-pain subsided” value ([2]; patient P1, multiple bone-metastases, from beginning of treatment) was 6 months, the DHEA value [2, 10] was “below 2.0” and the FSH level [2, 10] was “about 48 IU/l”. The “prolactin (PRL) value” [2, 10] was “about 97 mU/l”, the “serum DHEAS level” value ([2]; patient P1, year 2003, 7 mg strontium oxide daily (birch ash) plus dietary biomodulating components, below detectable limit) was < 0.8 and the clinical condition ([2]; patient P1, year 2003, treatment since 1990) was “excellent clinical condition”.
